This assay addresses T1, TYRO3 (RSE) (Homo sapiens, UniProt Q06418).
T1 construct: purchased Thermo Fisher Scientific (Life Technologies) SelectScreen
The assay can be described thus: SelectScreen Z'LYTE. Type of assay: biochemical. The method, boiled down:
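NU5455 was profiled across the SelectScreen Broad panel of kinase activity and binding assays. Z'LYTE reactions such as CSF1R ran at apparent Km ATP, while the Adapta CAMK1 assay used ATP listed as 10. Values are given as percent.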

T1 sequence (Q06418 41-890): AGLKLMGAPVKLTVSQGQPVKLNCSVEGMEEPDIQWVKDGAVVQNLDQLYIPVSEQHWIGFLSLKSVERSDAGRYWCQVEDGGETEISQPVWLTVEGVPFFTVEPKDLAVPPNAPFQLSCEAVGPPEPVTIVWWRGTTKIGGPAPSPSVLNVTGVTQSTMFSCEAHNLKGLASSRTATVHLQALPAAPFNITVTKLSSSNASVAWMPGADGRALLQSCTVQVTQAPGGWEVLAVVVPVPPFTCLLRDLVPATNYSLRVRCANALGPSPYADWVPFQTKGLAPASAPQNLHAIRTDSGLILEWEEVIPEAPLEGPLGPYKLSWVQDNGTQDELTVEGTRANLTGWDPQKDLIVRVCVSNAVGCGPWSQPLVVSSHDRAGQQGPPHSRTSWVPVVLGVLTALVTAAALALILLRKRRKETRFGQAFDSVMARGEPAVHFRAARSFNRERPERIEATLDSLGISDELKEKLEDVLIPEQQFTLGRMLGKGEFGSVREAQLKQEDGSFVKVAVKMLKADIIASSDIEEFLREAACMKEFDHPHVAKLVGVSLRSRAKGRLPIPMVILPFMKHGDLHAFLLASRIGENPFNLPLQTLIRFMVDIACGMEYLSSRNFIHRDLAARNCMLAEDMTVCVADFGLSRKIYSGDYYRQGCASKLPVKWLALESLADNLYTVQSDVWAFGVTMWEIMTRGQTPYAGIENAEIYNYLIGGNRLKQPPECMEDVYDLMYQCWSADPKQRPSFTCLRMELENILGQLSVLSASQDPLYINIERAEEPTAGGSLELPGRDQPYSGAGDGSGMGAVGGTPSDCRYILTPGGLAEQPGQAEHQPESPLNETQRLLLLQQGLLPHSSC

As a reminder, the inhibition is the change of the read-out against control, counted positive when it falls. In the case of `CN(C(=O)CN1CCOCC1)c1ccc2sc3c(-c4cccc5c(=O)cc(N6CC7CCC(C6)O7)oc45)cccc3c2c1` [NU5455], the inhibition at 1 µM was -5.1%.

Values taken from paper PMC6934184, “Selective DNA-PKcs inhibition extends the therapeutic index of localized radiotherapy and chemotherapy” (The Journal of Clinical Investigation, 2019).
